Laboratory results taken from the NIST ThermoML archive (doi:10.1016/j.tca.2015.06.017).

Test: xn = mol fraction of the nth substance listed
Conditions: Liquid, Vibrating tube method

CCCCCl [1-chlorobutane] + CCCCCCC
mass density [kg/m3]
Conditions | 313.15 K | 323.15 K
100 kPa, x2 = 0.0508 | – | 838.56
100 kPa, x2 = 0.0994 | – | 825.81
100 kPa, x2 = 0.2013 | – | 800.61
100 kPa, x2 = 0.3015 | – | 777.72
100 kPa, x2 = 0.4008 | – | 756.76
100 kPa, x2 = 0.5026 | – | 736.89
100 kPa, x2 = 0.6012 | – | 719.03
100 kPa, x2 = 0.7003 | – | 702.32
100 kPa, x2 = 0.7995 | – | 686.71
100 kPa, x2 = 0.9011 | – | 671.83
100 kPa, x2 = 0.9494 | – | 665.13
2000 kPa, x2 = 0.0508 | – | 840.94
2000 kPa, x2 = 0.0994 | – | 828.16
2000 kPa, x2 = 0.2013 | – | 802.98
2000 kPa, x2 = 0.3015 | – | 780.1
2000 kPa, x2 = 0.4008 | – | 759.09
2000 kPa, x2 = 0.5026 | – | 739.17
2000 kPa, x2 = 0.6012 | – | 721.27
2000 kPa, x2 = 0.7003 | – | 704.55
2000 kPa, x2 = 0.7995 | – | 688.99
2000 kPa, x2 = 0.9011 | – | 674.07
2000 kPa, x2 = 0.9494 | – | 667.35
5000 kPa, x2 = 0.0508 | – | 844.77
5000 kPa, x2 = 0.0994 | – | 831.99
5000 kPa, x2 = 0.2013 | – | 806.76
5000 kPa, x2 = 0.3015 | – | 783.86
5000 kPa, x2 = 0.4008 | – | 762.86
5000 kPa, x2 = 0.5026 | – | 742.92
5000 kPa, x2 = 0.6012 | – | 724.95
5000 kPa, x2 = 0.7003 | – | 708.22
5000 kPa, x2 = 0.7995 | – | 692.58
5000 kPa, x2 = 0.9011 | – | 677.65
5000 kPa, x2 = 0.9494 | – | 670.89
7000 kPa, x2 = 0.0508 | – | 847.24
7000 kPa, x2 = 0.0994 | – | 834.44
7000 kPa, x2 = 0.2013 | – | 809.21
7000 kPa, x2 = 0.3015 | – | 786.24
7000 kPa, x2 = 0.4008 | – | 765.22
7000 kPa, x2 = 0.5026 | – | 745.31
7000 kPa, x2 = 0.6012 | – | 727.32
7000 kPa, x2 = 0.7003 | – | 710.53
7000 kPa, x2 = 0.7995 | – | 694.9
7000 kPa, x2 = 0.9011 | – | 679.93
7000 kPa, x2 = 0.9494 | – | 673.17
10000 kPa, x2 = 0.0508 | – | 850.72
10000 kPa, x2 = 0.0994 | – | 837.9
10000 kPa, x2 = 0.2013 | – | 812.61
10000 kPa, x2 = 0.3015 | – | 789.63
10000 kPa, x2 = 0.4008 | – | 768.57
10000 kPa, x2 = 0.5026 | – | 748.59
10000 kPa, x2 = 0.6012 | – | 730.62
10000 kPa, x2 = 0.7003 | – | 713.78
10000 kPa, x2 = 0.7995 | – | 698.05
10000 kPa, x2 = 0.9011 | – | 683.06
10000 kPa, x2 = 0.9494 | – | 676.28
20000 kPa, x2 = 0.0508 | – | 861.47
20000 kPa, x2 = 0.0994 | – | 848.64
20000 kPa, x2 = 0.2013 | – | 823.24
20000 kPa, x2 = 0.3015 | – | 800.16
20000 kPa, x2 = 0.4008 | – | 779.03
20000 kPa, x2 = 0.5026 | 767.37 | 758.92
20000 kPa, x2 = 0.6012 | 749.02 | 740.82
20000 kPa, x2 = 0.7003 | 731.86 | 723.85
20000 kPa, x2 = 0.7995 | 715.81 | 708.08
20000 kPa, x2 = 0.9011 | 700.5 | 692.95
20000 kPa, x2 = 0.9494 | 693.56 | 686.11
30000 kPa, x2 = 0.0508 | 880.41 | 871.14
30000 kPa, x2 = 0.0994 | 867.36 | 858.24
30000 kPa, x2 = 0.2013 | 841.53 | 832.76
30000 kPa, x2 = 0.3015 | 818.07 | 809.58
30000 kPa, x2 = 0.4008 | 796.54 | 788.23
30000 kPa, x2 = 0.5026 | 776 | 767.99
30000 kPa, x2 = 0.6012 | 757.6 | 749.78
30000 kPa, x2 = 0.7003 | 740.3 | 732.75
30000 kPa, x2 = 0.7995 | 724.2 | 716.78
30000 kPa, x2 = 0.9011 | 708.75 | 701.56
30000 kPa, x2 = 0.9494 | 701.75 | 694.65
40000 kPa, x2 = 0.0508 | 888.86 | 880.1
40000 kPa, x2 = 0.0994 | 875.75 | 867.14
40000 kPa, x2 = 0.2013 | 849.87 | 841.52
40000 kPa, x2 = 0.3015 | 826.26 | 818.18
40000 kPa, x2 = 0.4008 | 804.63 | 796.79
40000 kPa, x2 = 0.5026 | 783.99 | 776.38
40000 kPa, x2 = 0.6012 | 765.46 | 758.03
40000 kPa, x2 = 0.7003 | 748.11 | 740.88
40000 kPa, x2 = 0.7995 | 731.87 | 724.82
40000 kPa, x2 = 0.9011 | 716.29 | 709.43
40000 kPa, x2 = 0.9494 | 709.25 | 702.46
50000 kPa, x2 = 0.0508 | 896.61 | 888.16
50000 kPa, x2 = 0.0994 | 883.49 | 875.18
50000 kPa, x2 = 0.2013 | 857.51 | 849.47
50000 kPa, x2 = 0.3015 | 833.86 | 826.06
50000 kPa, x2 = 0.4008 | 812.1 | 804.52
50000 kPa, x2 = 0.5026 | 791.37 | 784.01
50000 kPa, x2 = 0.6012 | 772.75 | 765.61
50000 kPa, x2 = 0.7003 | 755.31 | 748.29
50000 kPa, x2 = 0.7995 | 738.98 | 732.14
50000 kPa, x2 = 0.9011 | 723.31 | 716.65
50000 kPa, x2 = 0.9494 | 716.21 | 709.64
60000 kPa, x2 = 0.0508 | 903.88 | 895.85
60000 kPa, x2 = 0.0994 | 890.72 | 882.82
60000 kPa, x2 = 0.2013 | 864.67 | 856.99
60000 kPa, x2 = 0.3015 | 840.92 | 833.5
60000 kPa, x2 = 0.4008 | 819.09 | 811.83
60000 kPa, x2 = 0.5026 | 798.31 | 791.24
60000 kPa, x2 = 0.6012 | 779.58 | 772.72
60000 kPa, x2 = 0.7003 | 762 | 755.34
60000 kPa, x2 = 0.7995 | 745.59 | 739.04
60000 kPa, x2 = 0.9011 | 729.82 | 723.43
60000 kPa, x2 = 0.9494 | 722.67 | 716.36
65000 kPa, x2 = 0.0508 | 907.45 | 899.38
65000 kPa, x2 = 0.0994 | 894.26 | 886.34
65000 kPa, x2 = 0.2013 | 868.13 | 860.51
65000 kPa, x2 = 0.3015 | 844.29 | 836.96
65000 kPa, x2 = 0.4008 | 822.37 | 815.25
65000 kPa, x2 = 0.5026 | 801.56 | 794.63
65000 kPa, x2 = 0.6012 | 782.77 | 776.07
65000 kPa, x2 = 0.7003 | 765.13 | 758.61
65000 kPa, x2 = 0.7995 | 748.66 | 742.31
65000 kPa, x2 = 0.9011 | 732.82 | 726.65
65000 kPa, x2 = 0.9494 | 725.63 | 719.56
